Several values for one entry are separate records, joined by “and”; a condition that tells them apart may be missing. Identical values can stand only once. Entries after “also recorded” stand apart in the source; their conditions may differ. Like-named read-outs stand apart in the source and are kept apart here. Ends that are not written are not given here.
Assays:
[1] = test system: human peripheral mononuclear cells; assay type: cell-based
[2] = test system: human PMNC, APC and T cell fractions; assay type: cell-based
Whole PMNC = assay type: cell-based, human
[3] = test system: class II MHC molecules on Raji cells; assay type: binding, human
[4] = test system: class II MHC molecules (I-A^d and I-E^d) on A20 cells; assay type: binding, mouse
[5] = test system: class II MHC molecules on A20 cells; assay type: binding, mouse; details: for IC50: read-out: concentration reducing 125I-MMTV ORF(76-119) binding to A20 cells by 50%
[6] = target: I-Aβ^b (60-90) peptide of class II MHC β-chain (Mus musculus, UniProt P14483); assay type: binding, murine
[7] = test system: class II MHC molecules on Raji cells; assay type: binding, human; remark: listed apart in the source
[8] = test system: class II-negative L cells; assay type: binding

Chain of I-Aβ^b (60-90) peptide of class II MHC β-chain (P14483 87-117): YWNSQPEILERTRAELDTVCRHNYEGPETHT

concanavalin A [ConA]
SI ± sd, stimulus alone [1]: 6.0 ± 0.4
SI ± sd, APC [2]: 0.9 ± 0.1
SI ± sd, APC + T cells [2]: 40.7 ± 4.3
IFNγ at 24 H (Whole PMNC): 10
IFNγ at 48 h (Whole PMNC): 350 ± 71
IFNγ at 72 h (Whole PMNC): 400 ± 141
IFNγ at 96 h (Whole PMNC): 150 ± 71
level of IFNγ production (comparison in words) (Whole PMNC): levels much lower than that of Nef or SEA

HIV-1 Nef(123-160): SEQ ID NO. 18 DWQNYTPGPGVRYPLTFGWCYKLVPVEPDKVEEANKGE
IC50 ([3]; read-out: concentration reducing 125I-HIV-1 Nef(123-160) binding to Raji cells by 50%): 30 µM
SI ± sd, cells cultured with Anti-IgM + peptide ([1]; 96 h): 14.1 ± 0.5
SI ± sd, cells cultured with ConA + peptide ([1]; 96 h): 4.5 ± 0.4

staphylococcal enterotoxin A [SEA]
effectiveness as competitor of 125I-SEA binding relative to MMTV ORF(76-119) [4]: 20 times
competition with 125I-MMTV ORF(76-119) for binding to A20 cells (in words) [5]: a more potent competitor
IC50 [5]: 1.8 µM
competition with 125I-SEA and 125I-MMTV ORF(76-119) for binding to I-Aβ^b (60-90) peptide [6]: competed
IC50 ([7]; read-out: concentration reducing 125I-SEA binding to Raji cells by 50%): 0.2 µM
inhibition of 125I-HIV-1 Nef(123-160) binding to Raji cells (in words) [3]: binding as well as SEE, but it was more effective than SEC1 or SEB
SI ± sd, stimulus alone [1]: 17.6 ± 3.3
SI ± sd, APC [2]: 1.6 ± 0.2
ratio of the stimulation index for whole PMNC versus reconstituted APC/T cells [2]: ~6.78
IFNγ at 24 H (Whole PMNC): 55 ± 7
IFNγ at 48 h (Whole PMNC): 550 ± 141
IFNγ at 72 h (Whole PMNC): 3000
IFNγ at 96 h (Whole PMNC): 2000

HIV-1 Nef(1-38): SEQ ID NO. 14 MGGKWSKSSVVGWPTVRERMRRAEPAADGVGAASRDLE
reduction of 125I-SEA binding to Raji cells [7]: slight inhibitory effects; also recorded: slightly reduced

MMTV ORF(76-119): SEQ ID NO. 1 DSFNNSSVQDYNLNDSENSTFLLGQGPQPTSSYKPHRLCPSEIE
reduction of 125I-SEA binding to A20 cells [4]: approximately 63%
IC50 ([4]; read-out: concentration reducing 125I-SEA binding to A20 cells by 50%): 20 µM and ~20 µM
direct binding of 125I-labelled peptide to A20 cells [5]: did bind
IC50 [5]: 25 µM
binding of MMTV ORF(76-119) to class II-negative L cell line in comparison to A20 cells [8]: insignificant
competition with 125I-SEA and 125I-MMTV ORF(76-119) for binding to I-Aβ^b (60-90) peptide [6]: competed

staphylococcal enterotoxin B [SEB]
competition with 125I-MMTV ORF(76-119) for binding to A20 cells (in words) [5]: competed less effectively than SEA
inhibition of 125I-HIV-1 Nef(123-160) binding to Raji cells (in words) [3]: it was more effective than SEC1 or SEB

NKGENTSLLHPVSLHGMDDPEREVLEWRFD [HIV-1 Nef(156-186)]
SI ± sd, cells cultured with ConA + peptide [1]: 5.2 ± 1.6

Toxic shock syndrome toxin-1 [TSST-1]
competition with 125I-MMTV ORF(76-119) for binding to A20 cells (in words) [5]: did not compete

HIV-1 Nef(31-65): SEQ ID NO. 15 GAASRDLEKHGAITSSNTAATNAACAWLEAQEEEE
reduction of 125I-SEA binding to Raji cells [7]: slight inhibitory effects; also recorded: slightly reduced
